The values that follow come from US8361998B2, “Compounds and their use as IKACh blockers” (AstraZeneca AB, priority 2010, dated 2013).

The target in this assay is T1, human cardiac ion channel proteins hKir3.1/Kir3.4 (Homo sapiens, UniProt P48544+P48549).
T1 construct: expressed in transfected cells
T1 sequence (P48549 1-501): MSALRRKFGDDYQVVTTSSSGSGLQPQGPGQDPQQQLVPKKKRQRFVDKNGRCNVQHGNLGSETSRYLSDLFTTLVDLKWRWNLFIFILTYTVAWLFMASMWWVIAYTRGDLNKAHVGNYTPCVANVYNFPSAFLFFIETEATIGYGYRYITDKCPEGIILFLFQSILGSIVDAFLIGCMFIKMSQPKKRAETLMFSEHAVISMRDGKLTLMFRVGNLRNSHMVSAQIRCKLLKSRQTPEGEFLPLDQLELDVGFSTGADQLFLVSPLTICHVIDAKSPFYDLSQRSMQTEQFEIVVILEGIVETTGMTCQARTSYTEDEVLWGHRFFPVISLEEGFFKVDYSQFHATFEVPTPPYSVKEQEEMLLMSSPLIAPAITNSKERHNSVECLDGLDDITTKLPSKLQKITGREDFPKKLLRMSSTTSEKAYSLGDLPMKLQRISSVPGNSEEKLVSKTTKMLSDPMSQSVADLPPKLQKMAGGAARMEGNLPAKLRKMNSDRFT
T1 sequence (P48544 1-419): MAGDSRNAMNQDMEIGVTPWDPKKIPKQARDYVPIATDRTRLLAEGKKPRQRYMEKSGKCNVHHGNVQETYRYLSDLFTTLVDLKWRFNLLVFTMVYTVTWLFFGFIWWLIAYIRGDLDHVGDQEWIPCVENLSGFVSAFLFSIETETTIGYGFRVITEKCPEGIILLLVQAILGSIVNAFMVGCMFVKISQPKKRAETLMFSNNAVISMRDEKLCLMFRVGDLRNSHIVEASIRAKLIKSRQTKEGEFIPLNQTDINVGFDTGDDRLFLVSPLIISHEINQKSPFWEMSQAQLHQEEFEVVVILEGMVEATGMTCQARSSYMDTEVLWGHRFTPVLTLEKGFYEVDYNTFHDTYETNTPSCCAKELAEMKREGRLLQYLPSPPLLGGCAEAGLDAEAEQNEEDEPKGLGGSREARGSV
The assay is described as follows: Atomic Absorption Screening (AAS) Rb efflux assay of hKir3.1/Kir3.4 block, carbachol/high K+ stimulated, 10-pt or 7-pt CR. It is filed as cell-based. As to conditions: 10-pt CR (0.003 to 67 μmol/L), AAS Rb efflux, CHO-K1 cells expressing hKir3.1/Kir3.4; mean of >4 replicates; read-out: IKACh IC50 10-pt CR, AAS. An outline of the steps: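 CHO-K1 cells stably co-expressing human Kir3.1/Kir3.4 were Rb-loaded for 3 h at 37° C, preincubated with compound 5 min at RT, then stimulated 10 min with 10 μM carbachol plus 20 mM KCl (final). Supernatant Rb was measured by atomic absorption. Compounds ran at 0.003–67 μmol/L (10-pt) or 0.037–27 μmol/L (7-pt), threefold dilutions; IC50s are means of >4 or >3 replicates respectively.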

Each structure is given as a SMILES string.

In general, IC50 refers to the point on the concentration scale where inhibition reaches its midpoint. For `CO[C@H](C)[C@@H](CN1CCCC1)N(C)C(=O)c1ccc(Br)cc1` [Example 3.4, 4-Bromo-N-((2R,3R)-3-methoxy-1-(pyrrolidin-1-yl)butan-2-yl)-N-methylbenzamide], the IC50 is 2.2 µM.

On to `CO[C@H](C)[C@@H](CN1CCCC1)N(C)C(=O)c1ccc(Cl)cc1` [Example 3.5, 4-Chloro-N-((2R,3R)-3-methoxy-1-(pyrrolidin-1-yl)butan-2-yl)-N-methylbenzamide], for which the IC50 was 7.2 µM. To `COC1CCN(C[C@H](C(C)C)N(C)C(=O)c2ccc(Br)cc2)CC1` [Example 3.6, (S)-4-Bromo-N-(1-(4-methoxypiperidin-1-yl)-3-methylbutan-2-yl)-N-methylbenzamide] belongs 3.2 µM; to `COC1CCN(C[C@H](C(C)C)N(C)C(=O)c2ccc(Cl)cc2)CC1` [Example 3.7, (S)-4-Chloro-N-(1-(4-methoxypiperidin-1-yl)-3-methylbutan-2-yl)-N-methylbenzamide], 1.3 µM.

Consider `COC1CCN(C[C@H](C(C)C)N(C)C(=O)c2ccc(F)c(C)c2)CC1` [Example 3.8, (S)-4-Fluoro-N-(1-(4-methoxypiperidin-1-yl)-3-methylbutan-2-yl)-N,3-dimethylbenzamide], for which the concentration for half-maximal inhibition (IC50) was 4.8 µM. Regarding `COC1CCN(C[C@H](C(C)C)N(C)C(=O)c2ccc(F)c(Cl)c2)CC1` [Example 3.9, (S)-3-Chloro-4-fluoro-N-(1-(4-methoxypiperidin-1-yl)-3-methylbutan-2-yl)-N-methylbenzamide], the IC50 turned out to be 3 µM. With `COC1CCN(C[C@H](C(C)C)N(C)C(=O)c2cccc(C)c2)CC1` [Example 3.10, (S)-N-(1-(4-Methoxypiperidin-1-yl)-3-methylbutan-2-yl)-N,3-dimethylbenzamide], the IC50 came out at 14 µM. Consider `COc1cc(C(=O)N(C)[C@H](CN2CCC(OC)CC2)C(C)C)ccc1C` [Example 3.11, (S)-3-Methoxy-N-(1-(4-methoxypiperidin-1-yl)-3-methylbutan-2-yl)-N,4-dimethylbenzamide], for which the 50% inhibitory concentration (IC50) came to 7.2 µM. For `COC1CCN(C[C@H](C(C)C)N(C)C(=O)c2ccc(C)c(C)c2)CC1` [Example 3.12, (S)-N-(1-(4-Methoxypiperidin-1-yl)-3-methylbutan-2-yl)-N,3,4-trimethylbenzamide], the IC50 stood at 2.5 µM. On to `Cc1cc(C(=O)N(C)[C@H](CN2CCCC2)C2CC2)ccc1F` [Example 3.13, (S)-N-(1-Cyclopropyl-2-(pyrrolidin-1-yl)ethyl)-4-fluoro-N,3-di-methylbenzamide], for which the IC50 amounted to 3.6 µM. For `CN(C(=O)c1ccc(Cl)cc1)[C@H](CN1CCCC1)C1CC1` [Example 3.14, (S)-4-Chloro-N-(1-cyclopropyl-2-(pyrrolidin-1-yl)ethyl)-N-methylbenzamide], the IC50 stood at 5.7 µM. Take `CN(C(=O)c1ccc(Br)cc1)[C@H](CN1CCCC1)C1CC1` [Example 3.15, (S)-4-Bromo-N-(1-cyclopropyl-2-(pyrrolidin-1-yl)ethyl)-N-methylbenzamide]: the half-maximal inhibitory concentration (IC50) stood at 3.8 µM. For `CN(C(=O)c1ccc(F)c(F)c1)[C@H](CN1CCCC1)C1CC1` [Example 3.16, (S)-N-(1-Cyclopropyl-2-(pyrrolidin-1-yl)ethyl)-3,4-difluoro-N-methylbenzamide], the IC50 worked out at 13 µM.

Regarding `Cc1cccc(C(=O)N(C)[C@H](CN2CCCC2)C2CC2)c1` [Example 3.17, (S)-N-(1-Cyclopropyl-2-(pyrrolidin-1-yl)ethyl)-N,3-dimethyl-benzamide], the IC50 worked out at 9.3 µM. To `COC[C@@H]1CCCN1C[C@H](C(C)C)N(C)C(=O)c1ccc(OC)cc1` [Example 3.18, 4-Methoxy-N-((S)-1-((S)-2-(methoxymethyl)pyrrolidin-1-yl)-3-methylbutan-2-yl)-N-methylbenzamide] belongs 1.9 µM; to `COC[C@@H]1CCCN1C[C@H](C(C)C)N(C)C(=O)c1ccc(Cl)cc1` [Example 3.19, 4-Chloro-N-((S)-1-((S)-2-(methoxymethyl)pyrrolidin-1-yl)-3-methylbutan-2-yl)-N-methylbenzamide], 6 µM; to `COC[C@@H]1CCCN1C[C@H](C(C)C)N(C)C(=O)c1ccc(Br)cc1` [Example 3.20, 4-Bromo-N-((S)-1-((S)-2-(methoxymethyl)pyrrolidin-1-yl)-3-methylbutan-2-yl)-N-methylbenzamide], 8.4 µM. In the case of `CN(C(=O)c1ccc(Cl)cc1)[C@H](CN1CCC1)C1CC1` [Example 4.2, (S)-N-(2-(Azetidin-1-yl)-1-cyclopropylethyl)-4-chloro-N-methylbenzamide] it was 2.8 µM; in that of `CN(C(=O)c1ccc(Br)cc1)[C@H](CN1CCC1)C1CC1` [Example 4.3, (S)-N-(2-(Azetidin-1-yl)-1-cyclopropylethyl)-4-bromo-N-methylbenzamide], 6.8 µM; in that of `CC(C)[C@@H](CN1CC(O)C1)N(C)C(=O)c1ccc(Br)cc1` [Example 6.3, (S)-4-Bromo-N-(1-(3-hydroxyazetidin-1-yl)-3-methylbutan-2-yl)-N-methylbenzamide], 2.5 µM. With `CN(C(=O)c1ccc(F)cc1)[C@H](CN1CC(O)C1)C1CC1` [Example 7.4, (S)-N-(1-Cyclopropyl-2-(3-hydroxyazetidin-1-yl)ethyl)-4-fluoro-N-methylbenzamide], the IC50 was 9.8 µM. For the compound `CN(C(=O)c1ccc(F)c(C(F)(F)F)c1)[C@H](CN1CC(O)C1)C1CC1` [Example 7.5, (S)-N-(1-Cyclopropyl-2-(3-hydroxyazetidin-1-yl)ethyl)-4-fluoro-N-methyl-3-(trifluoromethyl)benzamide], the IC50 was 1.8 µM. In the case of `CCC[C@@H](CN1CC(O)C1)N(C)C(=O)c1ccc(F)c(Cl)c1` [Example 8.3, (S)-3-Chloro-4-fluoro-N-(1-(3-hydroxyazetidin-1-yl)pentan-2-yl)-N-methylbenzamide] it was 0.8 µM. To `CCC[C@@H](CN1CC(O)C1)N(C)C(=O)c1ccc(Cl)c(C)c1` [Example 8.4, (S)-4-Chloro-N-(1-(3-hydroxyazetidin-1-yl)pentan-2-yl)-N,3-di-methylbenzamide] belongs 0.2 µM; to `CCC[C@@H](CN1CC(O)C1)N(C)C(=O)c1ccc(F)c(C(F)(F)F)c1` [Example 8.5, (S)-4-Fluoro-N-(1-(3-hydroxyazetidin-1-yl)pentan-2-yl)-N-methyl-3-(trifluoromethyl)benzamide], 0.58 µM.

Turning to `CCC[C@@H](CN1CC(O)C1)N(C)C(=O)c1ccc(Br)cc1` [Example 8.7, (S)-4-Bromo-N-(1-(3-hydroxyazetidin-1-yl)pentan-2-yl)-N-methylbenzamide], the 50% inhibitory concentration (IC50) was found to be 1.7 µM.

On to `CCC[C@@H](CN1CC(O)C1)N(C)C(=O)c1cccc(C(F)(F)F)c1` [Example 8.8, (S)-N-(1-(3-Hydroxyazetidin-1-yl)pentan-2-yl)-N-methyl-3-(tri-fluoromethyl)benzamide], for which the IC50 is 2.4 µM. Regarding `CCC[C@@H](CN1CC(O)C1)N(C)C(=O)c1ccc(C#N)cc1` [Example 8.9, (S)-4-Cyano-N-(1-(3-hydroxyazetidin-1-yl)pentan-2-yl)-N-methylbenzamide], the 50% inhibitory concentration (IC50) came to 8.6 µM. To `CCC[C@@H](CN1CC(O)C1)N(C)C(=O)c1cccc(C)c1` [Example 8.10, (S)-N-(1-(3-Hydroxyazetidin-1-yl)pentan-2-yl)-N,3-dimethyl-benzamide] belongs 4.3 µM; to `CCC[C@@H](CN1CC(O)C1)N(C)C(=O)c1ccc(F)c(C)c1` [Example 8.11, (S)-4-Fluoro-N-(1-(3-hydroxyazetidin-1-yl)pentan-2-yl)-N,3-di-methylbenzamide], 0.84 µM.

As for `Cc1cc(C(=O)N(C)[C@H](CN2C[C@H](O)[C@@H](O)C2)C(C)C)ccc1F` [Example 8.12, N-((S)-1-((3S,4S)-3,4-Dihydroxypyrrolidin-1-yl)-3-methylbutan-2-yl)-4-fluoro-N,3-dimethylbenzamide], the half-maximal inhibitory concentration (IC50) is 4.3 µM. To `Cc1cc(C(=O)N(C)[C@H](CN2C[C@H](O)[C@@H](O)C2)C(C)C)ccc1Cl` [Example 8.13, 4-Chloro-N-((S)-1-((3S,4S)-3,4-dihydroxypyrrolidin-1-yl)-3-methylbutan-2-yl)-N,3-dimethylbenzamide] belongs 1.9 µM; to `CC(C)[C@@H](CN1C[C@H](O)[C@@H](O)C1)N(C)C(=O)c1ccc(Cl)cc1` [Example 8.14, 4-Chloro-N-((S)-1-((3S,4S)-3,4-dihydroxypyrrolidin-1-yl)-3-methylbutan-2-yl)-N-methylbenzamide], 5.8 µM.
